Residues, ends and D or L forms follow the SMILES beside them. *: point of attachment. Cbz = O=C(OCc1ccccc1)*
T1: CD24 in HT29 cells (Homo sapiens, UniProt P25063)
T1 construct: endogenous in cells; host or cells: HT29 human colorectal cancer cells (ATCC)
T1 sequence (P25063 27-59 limits assumed): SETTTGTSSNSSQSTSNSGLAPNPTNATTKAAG

T2: human CD24 polypeptide (human) (UniProt P25063)
T2 sequence (looked up): T1 sequence (P25063 27-59 limits assumed)

B1: SWA11 anti-CD24 monoclonal antibody (antibody, human IgG1, kappa, V domains shown)
V domain 1: SDVHLQESGPDLVKPSQSLSLTCTVTGYSITSGYTWHWIRQFPGNTVEWMGYIQYTGSTRYNPALRGRLSISRDTSKNQFFLQLISVTTADTGTYFCARGTTASFDYWGQGTTLTVAS
V domain 2: DIVMSQSPSSLNVSVGEKVTMRCRSSQSLLYSSDQKNYLTWYQQKPGQSPKLLISWASTRASGVPDRFTGSGSGTDFTLTISSVKAEDLGVYYCQQYFIYPLTFGVGTKLGLKR

Assays:
HT29 cells = assay: Combined anti-CD24 mAb and chemotherapy, methylene-blue viability assay; type: cell-based, human; details: simultaneous SWA11, 72 hours
Protocol: Experiments were performed in duplicates or repeated twice. The Y axes stand for cell viability quantified via methylene-blue assay.
The killing effect of the anti-CD24 antibodies and the chemotherapies was assessed, in-vitro, using a methylene-blue assay: 2.5×10^3 cells/well were plated onto 96-well in 0.2 ml complete medium. On the morrow the media were refreshed with the addition of the indicated reagents, held in incubation for 72 hours. The cells were washed with PBS and then fixed with a 0.2 mL 4% formaldehyde solution for 2 hours at room temperature. The cells were then washed with PBS, incubated with 0.15 mL ribonuclease A (3 μg/mL) for 30 minutes at room temperature, equilibrated with 0.2 mL sodium borate (0.1M, pH 8.5), and stained with 0.2 mL methylene blue (0.5%) for 10 minutes at room temperature. Finally, the cells were thoroughly washed with tap water and cell-bound dye was eluted with 0.2 mL HCl (0.1M). Color intensity was read in an enzyme-linked immunosorbent assay plate reader at 595 nm. SWA11 served as the anti-CD24 antibody.

CD24 in HT29 cells = target: T1, CD24 in HT29 cells; assay: Western blot of CD24 degradation in mAb-treated cells; type: cell-based; details: up to 6 hours
Protocol: FIGS. 5A and 5B are photos showing immunodetection on Western blot of CD24 degradation in anti-CD24 mAb treated cancer cells. HT29 (FIG. 5A) and Colo357 (FIG. 5B) cells were exposed to monoclonal anti-CD24 antibody SWA11 for the indicated periods of time, cells harvested and protein extracted. 20 μg of cell proteins from each sample were separated by SDS-PAGE, blotted onto membrane and reacted with anti-CD24 (SWA11 mAb, CD24) or polyclonal anti-actin (1-19, Santa Cruz Biotechnology, Santa Cruz Calif.). Visualization was effected by anti-mouse and anti-goat (respectively) second antibodies. Note the degradation of CD24 apparent already at 2 hours treatment in both cell lines, with no effect on actin levels;
FIG. 6 is a photo showing the lysosomal mediation of CD24 degradation in HT29 cancer cells treated with anti-CD24 mAb. […]
Exponentially growing cells were harvested and protein concentrations were determined using the Bio-Rad protein assay kit (Bio-Rad, Hercules, Calif.). […]
In order to assess whether CD24 proteolysis is involved in the inhibition of CD24-expressing cancer cell growth by anti-CD24 antibodies, protein levels of CD24 and housekeeping gene product actin in mAb-treated and control cells were analyzed by SDS-PAGE and Western blotting with specific antibodies.

[1] = target: T2, human CD24 polypeptide (human); assay: cell-based or functional assay
[2] = target: T2, human CD24 polypeptide (human); assay: cell-based or functional assay; remark: listed apart in the source

Row | Molecule | cytotoxic effect of chemotherapeutic agent when combined with SWA11 (HT29 cells) | further results
1 | O=C1[O][Pt]2([NH][C@@H]3CCCC[C@H]3[NH]2)[O]C1=O [Oxaloplatin] | enhanced the cytotoxic effect | 
2 | O=c1[nH]cc(F)c(=O)[nH]1 [5-florouracil] | enhanced the cytotoxic effect | 
3 | CCN(CC)CCCC(C)Nc1ccnc2cc(Cl)ccc12 (centres unmarked) [chloroquine] |  | effect on anti-CD24 mAb induced decrease in CD24 protein level (CD24 in HT29 cells; 0.5 mM, lysosomal inhibitor, added 2 hours before mAb): prevented the decrease in CD24 protein level
4 | COc1cccc2c1C(=O)c1c(O)c3c(c(O)c1C2=O)C[C@@](O)(C(=O)CO)C[C@@H]3O[C@H]1C[C@H](N)[C@H](O)[C@H](C)O1 [Doxorubicin] | enhanced the cytotoxic effect | 
5 | CC(=O)O[C@H]1C(=O)[C@@]2(C)[C@H]([C@H](OC(=O)c3ccccc3)[C@]3(O)C[C@H](OC(=O)[C@H](O)[C@@H](NC(=O)c4ccccc4)c4ccccc4)C(C)=C1C3(C)C)[C@]1(OC(C)=O)CO[C@@H]1C[C@@H]2O [Paclitaxel] | enhanced the cytotoxic effect | 
6 | SWA11-ZZ-PE38 immunoconjugate |  | cytotoxity (LD50) [1]: 32 ng/mL
7 | CC(C)C[C@@H](C=O)NC(=O)[C@H](CC(C)C)NC(=O)[C@H](CC(C)C)NC(=O)OCc1ccccc1 [MG132] (Cbz-Leu-Leu-Leu-aldehyde) |  | effect on anti-CD24 mAb induced CD24 degradation (CD24 in HT29 cells; 0.1 mM, proteasomal inhibitor, added prior to mAb): had no effect
8 | B1 |  | growth inhibition (cell viability, methylene blue) [2]: < 90%

— patent US8614301B2, “Methods of treating cancer using anti CD24 antibodies” (priority 2007, dated 2013)
